Reference: PMC9598282 (Antibiotics, 2022)
Converted amounts (≈) assume the structure as drawn. “And” between values parts separate entries of the source, which are not always exact repeats. Equal values may be shown once. Bridge positions count the residues as written; N and C are the ends. Square brackets hold non-standard residues; d marks the D form. Peptide text beside a SMILES is read from it. * marks the point of attachment. X1 = CC[C@H](C)CCCCC(=O)*; Dab = NCC[C@H](N)C(=O)O

Tests used:
[1] = tested on: P. aeruginosa P264-104354; format: cell-based, Pseudomonas aeruginosa; conditions: colistin-susceptible MDR isolate
Method: (§1) For the preparation of the bacterial solution, overnight grown culture was diluted in 0.85% saline solution, adjusted to 0.5 McFarland turbidity and further diluted in Mueller–Hinton broth for inoculation to a final concentration of 5 × 10^5 colony forming units/mL (CFU/mL). The agents were serially diluted two-fold in a 96-well plate, and equal volumes of bacterial solution were subsequently added to the designated wells. The well consisting of bacterial solution served as the positive control, while the well containing only media served as the negative control. The plate was then incubated at 37 °C for 18 h. After incubation, an Emax Plus microplate reader (Molecular Devices, Union City, CA, USA) was used to measure the optical density (OD) at a wavelength of 590 nm to confirm the turbidity. The antibacterial activity corresponded to the MIC, which is defined as the lowest concentration of the agent necessary to inhibit visible bacterial growth.

[2] = tested on: P. aeruginosa P262-101856; format: cell-based, Pseudomonas aeruginosa; conditions: colistin-susceptible MDR isolate
Method: as §1

P. aeruginosa 101243 = format: cell-based, Pseudomonas aeruginosa; conditions: colistin-resistant isolate
Method: as §1

P. aeruginosa 114228 = format: cell-based, Pseudomonas aeruginosa; conditions: colistin-resistant isolate
Method: as §1

P. aeruginosa P259-96918 = format: cell-based, Pseudomonas aeruginosa; conditions: colistin-susceptible MDR isolate
Method: as §1

P. aeruginosa PA 107092 = assay: MIC, broth microdilution; format: cell-based, Pseudomonas aeruginosa; conditions: β-lactamase harboring isolate
Method: as §1

P. aeruginosa PA 86052 = assay: MIC, broth microdilution; format: cell-based, Pseudomonas aeruginosa; conditions: β-lactamase harboring isolate
Method: as §1

P. aeruginosa PA 109084 = assay: MIC, broth microdilution; format: cell-based, Pseudomonas aeruginosa; conditions: β-lactamase harboring isolate
Method: as §1

P. aeruginosa PA 88949 = assay: MIC, broth microdilution; format: cell-based, Pseudomonas aeruginosa; conditions: β-lactamase harboring isolate
Method: as §1

P. aeruginosa PA 108590 = assay: MIC, broth microdilution; format: cell-based, Pseudomonas aeruginosa; conditions: β-lactamase harboring isolate
Method: as §1

P. aeruginosa PAO1 [3] = assay: microbe, parasite or virus in culture; format: cell-based, Pseudomonas aeruginosa
Outline: (§2)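 Two-fold serial dilutions of antibiotic and guanidinylated polymyxin adjuvant crossed in checkerboard against bacterial inoculum prepared as for susceptibility testing; 18 h at 37 °C, growth read as OD590. FIC index = sum of each agent's MIC in combination divided by its MIC alone; ≤0.5 synergy, >0.5–4 additivity, >4 antagonism.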

E. cloacae 118564 = format: cell-based, Enterobacter cloacae; conditions: colistin-resistant isolate
Method: as §1

E. cloacae 121187 = format: cell-based, Enterobacter cloacae; conditions: colistin-resistant isolate
Method: as §1

K. pneumoniae 113254 = format: cell-based, Klebsiella pneumoniae; conditions: colistin-resistant isolate
Method: as §1

K. pneumoniae 113250 = format: cell-based, Klebsiella pneumoniae; conditions: colistin-resistant isolate
Method: as §1

E. coli 94393 = format: cell-based, Escherichia coli; conditions: colistin-resistant isolate
Method: as §1

E. coli 94474 = format: cell-based, Escherichia coli; conditions: colistin-resistant isolate
Method: as §1

E. coli 107115 = format: cell-based, Escherichia coli; conditions: colistin-susceptible MDR isolate
Method: as §1

E. coli ATCC 25922 [4] = assay: microbe, parasite or virus in culture; format: cell-based, Escherichia coli
Outline: as §2

A. baumannii 92247 = format: cell-based, Acinetobacter baumannii; conditions: colistin-resistant isolate
Method: as §1

A. baumannii 110193 = format: cell-based, Acinetobacter baumannii; conditions: colistin-susceptible MDR isolate
Method: as §1

A. baumannii ATCC 17978 [5] = format: cell-based, Acinetobacter baumannii; conditions: wild-type
Method: as §1

A. baumannii AB031 = format: cell-based, Acinetobacter baumannii; conditions: colistin-susceptible MDR isolate
Method: as §1

A. baumannii AB027 = format: cell-based, Acinetobacter baumannii; conditions: colistin-susceptible MDR isolate
Method: as §1

A. baumannii LAC-4 = format: cell-based, Acinetobacter baumannii; conditions: colistin-susceptible MDR isolate
Method: as §1

A. baumannii ATCC 17978 [6] = assay: microbe, parasite or virus in culture; format: cell-based, Acinetobacter baumannii
Outline: as §2

P. aeruginosa PAO1 [7] = format: cell-based, Pseudomonas aeruginosa; conditions: wild-type
Method: as §1

Hep G2 cells = assay: Cell viability assay (PrestoBlue); format: cell-based, human; conditions: 48 h
Method: (§3) The cytotoxicity of the guanidinylated polymyxins was evaluated using the cell viability assay as previously described. Human embryonic kidney cells (HEK293) and liver carcinoma cells (Hep G2) were cultured in flasks with Dulbecco’s Modified Eagle’s Medium (DMEM) supplemented with 10% fetal bovine serum. The cells were incubated at 5% CO2 in a humidified atmosphere at 37 °C. Equal volumes of media (50 μL) containing approximately 8000 cells (Hek293) or 5000 cells (HepG2) were added to wells in 96-well plates. The wells containing only media with no cells served as blanks. The plate was incubated for 24 h. Double the final desired concentrations of the agent were subsequently added to each well (experimental and blanks) in a volume of 50 μL. After 48 h incubation, PrestoBlue reagent from Invitrogen (Waltham, MA, USA,) was added to a final concentration of 10% (v/v), and plates were incubated for an additional1 h at 5% CO2. Fluorescence (excitation/emission, 560/590 nm) was measured with a SpectraMax M2 plate reader (Molecular Devices, United States). Values from the blank wells were subtracted from the corresponding wells with cells. The cell viability relative to the controls with a vehicle was calculated. The plots indicate the mean ± standard deviation of two experiments with five samples each. […]

HEK293 cells = assay: Cell viability assay (PrestoBlue); format: cell-based, human; conditions: 48 h
Method: as §3

E. coli ATCC 25922 [8] = format: cell-based, Escherichia coli; conditions: wild-type
Method: as §1

[9] = agent alone, one value per checkerboard plate

Work on CC[C@H](C)CCCCC(=O)N[C@@H](CCN)C(=O)N[C@H](C(=O)N[C@@H](CCN)C(=O)N[C@H]1CCNC(=O)[C@H]([C@@H](C)O)NC(=O)[C@H](CCN)NC(=O)[C@H](CCN)NC(=O)[C@H](CC(C)C)NC(=O)[C@@H](CC(C)C)NC(=O)[C@H](CCN)NC1=O)[C@@H](C)O [Colistin, colistin] (X1-[Dab]T[Dab][Dab][Dab][dL]L[Dab][Dab]T; lactam 4-C (inferred); N-terminus assumed) yielded an MIC [1] of 1 µg/mL (≈ 0.855 µM), an MIC [2] of 2 µg/mL (≈ 1.71 µM) and an MIC (P. aeruginosa 101243) of 1024 µg/mL (≈ 876 µM). The MIC (P. aeruginosa 114228) was 4 µg/mL (≈ 3.42 µM), the MIC (P. aeruginosa P259-96918) was 0.5 µg/mL (≈ 0.428 µM) and the MIC (P. aeruginosa PA 107092) was 0.5 µg/mL (≈ 0.428 µM). It also gave an MIC (P. aeruginosa PA 86052) of 1 µg/mL (≈ 0.855 µM), an MIC (P. aeruginosa PA 109084) of 0.5 µg/mL (≈ 0.428 µM) and an MIC (P. aeruginosa PA 88949) of 1 µg/mL (≈ 0.855 µM). The MIC (P. aeruginosa PA 108590) was 1 µg/mL (≈ 0.855 µM), the “Absolute MIC of antibiotic at 4 μg/mL GCol” value (P. aeruginosa PAO1 [3]) was 0.5 µg/mL and the “Absolute MIC of antibiotic at 4 μg/mL GPMB” value (P. aeruginosa PAO1 [3]) was 1 µg/mL. The MIC alone (P. aeruginosa PAO1 [3]; [9]) was 0.5 µg/mL and 1 µg/mL, the Fold-potentiation of antibiotic (P. aeruginosa PAO1 [3]; at 4 μg/mL GCol) was 1 and the Fold-potentiation of antibiotic (P. aeruginosa PAO1 [3]; at 4 μg/mL GPMB) was 1. For the same molecule, the MIC (E. cloacae 118564) was >128 µg/mL, the MIC (E. cloacae 121187) was >128 µg/mL and the MIC (K. pneumoniae 113254) was 256 µg/mL (≈ 219 µM). The MIC (K. pneumoniae 113250) was 256 µg/mL (≈ 219 µM), the MIC (E. coli 94393) was 4 µg/mL (≈ 3.42 µM) and the MIC (E. coli 94474) was 16 µg/mL (≈ 13.7 µM). The MIC (E. coli 107115) was 0.125 µg/mL (≈ 0.107 µM), the “Absolute MIC of antibiotic at 2 μg/mL GCol” value (E. coli ATCC 25922 [4]) was 0.125 µg/mL and the “Absolute MIC of antibiotic at 2 μg/mL GPMB” value (E. coli ATCC 25922 [4]) was 0.0313 µg/mL. For the same molecule, the “FIC index antibiotic + GCol” value (E. coli ATCC 25922 [4]) was 1.016, the “FIC index antibiotic + GPMB” value (E. coli ATCC 25922 [4]) was 0.25 and the MIC alone (E. coli ATCC 25922 [4]; [9]) was 0.125 µg/mL and 0.25 µg/mL. The Fold-potentiation of antibiotic (E. coli ATCC 25922 [4]; at 2 μg/mL GCol) was 1, the Fold-potentiation of antibiotic (E. coli ATCC 25922 [4]; at 2 μg/mL GPMB) was 8 and the MIC (A. baumannii 92247) was 4 µg/mL (≈ 3.42 µM). For the same molecule, the MIC (A. baumannii 110193) was 0.5 µg/mL (≈ 0.428 µM), the MIC (A. baumannii ATCC 17978 [5]) was 0.5 µg/mL (≈ 0.428 µM) and the MIC (A. baumannii AB031) was 0.25 µg/mL (≈ 0.214 µM). The MIC (A. baumannii AB027) was 0.25 µg/mL (≈ 0.214 µM), the MIC (A. baumannii LAC-4) was 0.125 µg/mL (≈ 0.107 µM) and the “Absolute MIC of antibiotic at 2 μg/mL GCol” value (A. baumannii ATCC 17978 [6]) was 0.25 µg/mL. For the same molecule, the “FIC index antibiotic + GPMB” value (A. baumannii ATCC 17978 [6]) was 1.016, the MIC alone (A. baumannii ATCC 17978 [6]; [9]) was 0.25 µg/mL and the Fold-potentiation of antibiotic (A. baumannii ATCC 17978 [6]; at 2 μg/mL GCol) was 1. The Fold-potentiation of antibiotic (A. baumannii ATCC 17978 [6]; at 2 μg/mL GPMB) was 1.

With polymyxin B [PMB] the MIC [1] was 2 µg/mL, the MIC (P. aeruginosa PAO1 [7]) was 0.5 µg/mL and the MIC [2] was 0.5 µg/mL. For the same molecule, the MIC (P. aeruginosa 101243) was >128 µg/mL, the MIC (P. aeruginosa 114228) was 64 µg/mL and the MIC (P. aeruginosa P259-96918) was ≤0.0625 µg/mL. The MIC (P. aeruginosa PA 107092) was 0.25 µg/mL, the MIC (P. aeruginosa PA 86052) was 0.25 µg/mL and the MIC (P. aeruginosa PA 109084) was 0.25 µg/mL. For the same molecule, the MIC (P. aeruginosa PA 88949) was 0.5 µg/mL, the MIC (E. cloacae 118564) was >64 µg/mL and the MIC (E. cloacae 121187) was >64 µg/mL. For the same molecule, the MIC (K. pneumoniae 113254) was >64 µg/mL, the MIC (K. pneumoniae 113250) was >64 µg/mL and the “concentration up to which Hep G2 cells maintained 100% viability” value (Hep G2 cells) was 25 µM. For the same molecule, the “concentration up to which HEK293 cells maintained >90% viability” value (HEK293 cells) was 125 µM, the MIC (E. coli 94393) was 2 µg/mL and the MIC (E. coli 94474) was 16 µg/mL. For the same molecule, the MIC (E. coli ATCC 25922 [8]) was 1 µg/mL, the MIC (E. coli 107115) was ≤0.125 µg/mL and the MIC (A. baumannii 92247) was 8 µg/mL. The MIC (A. baumannii 110193) was 1 µg/mL, the MIC (A. baumannii ATCC 17978 [5]) was 2 µg/mL and the MIC (A. baumannii AB027) was 0.25 µg/mL. The MIC (A. baumannii LAC-4) was 0.5 µg/mL.
